Several values for one entry are separate records, joined by “and”; a condition that tells them apart may be missing. Identical values can stand only once. Counter-ions that a name gives are not always drawn. Like-named read-outs stand apart in the source and are kept apart here.
Test system: β2AR
Conditions: for competition binding curve vs isoproterenol (Extended Data Figure 3M) / competition binding curve vs isoproterenol (Extended Data Figure 3M), Fit: Sensor; for competition binding curve vs isoproterenol (Extended Data Figure 3M), Fit / competition binding curve vs isoproterenol (Extended Data Figure 3L), Fit: fitted curve
Description: Reactions were equilibrated, washed, and measured following the same procedure listed above for the radioligand antagonist-binding assay. […] Weighted averages of these IC50 values were used for comparison purposes and inhibition constant (Ki) calculations. […] Binding assays were performed in technical duplicates. Three biological replicates were collected with different membrane preparations for each replicate.

CC(C)NCC(O)c1ccc(O)c(O)c1 (stereo not drawn) [Isoproterenol, isoproterenol (+)-bitartrate salt]
competition binding curve vs isoproterenol (Extended Data Figure 3M) (Isoproterenol 1.00E-10 M, replicates 1-3 and Average): 100.71 and 99.53 and 99.04 and 99.76 | competition binding curve vs isoproterenol (Extended Data Figure 3M), Fit (Isoproterenol 5.00E-06 M): 10.04 | competition binding curve vs isoproterenol (Extended Data Figure 3M) (Isoproterenol 5.00E-06 M, replicates 2-3 and Average): 10.13 and 9.02 and 9.58 | competition binding curve vs isoproterenol (Extended Data Figure 3M), Fit (Isoproterenol 5.00E-07 M): 42.59 | competition binding curve vs isoproterenol (Extended Data Figure 3M) (Isoproterenol 5.00E-07 M, replicates 2-3 and Average): 41.48 and 44.45 and 42.96 | competition binding curve vs isoproterenol (Extended Data Figure 3L), Fit (Wild-Type + Gs-Peptide, Isoproterenol 1.00E-03 M): 0.69 | competition binding curve vs isoproterenol (Extended Data Figure 3L) (Wild-Type + Gs-Peptide, Isoproterenol 1.00E-03 M, replicates 1-3 and Average): 0.0116 and 0.0442 and 0.27 and -0.28 | competition binding curve vs isoproterenol (Extended Data Figure 3L), Fit (Wild-Type + Gs-Peptide, Isoproterenol 1.00E-04 M): 1.04 | competition binding curve vs isoproterenol (Extended Data Figure 3L) (Wild-Type + Gs-Peptide, Isoproterenol 1.00E-04 M, replicates 1-3 and Average): 0.88 and 0.89 and 0.84 and 0.90 | competition binding curve vs isoproterenol (Extended Data Figure 3L), Fit (Wild-Type + Gs-Peptide, Isoproterenol 1.00E-05 M): 4.37 | competition binding curve vs isoproterenol (Extended Data Figure 3L) (Wild-Type + Gs-Peptide, Isoproterenol 1.00E-05 M, replicates 1-3 and Average): 5.43 and 5.70 and 4.92 and 5.68 | competition binding curve vs isoproterenol (Extended Data Figure 3L), Fit (Wild-Type + Gs-Peptide, Isoproterenol 1.00E-06 M): 26.38 | competition binding curve vs isoproterenol (Extended Data Figure 3L) (Wild-Type + Gs-Peptide, Isoproterenol 1.00E-06 M, replicates 1-3 and Average): 26.11 and 25.98 and 23.88 and 28.47 | competition binding curve vs isoproterenol (Extended Data Figure 3L), Fit (Wild-Type + Gs-Peptide, Isoproterenol 1.00E-07 M): 67.56 | competition binding curve vs isoproterenol (Extended Data Figure 3L) (Wild-Type + Gs-Peptide, Isoproterenol 1.00E-07 M, replicates 1-3 and Average): 67.66 and 67.54 and 65.49 and 69.94 | competition binding curve vs isoproterenol (Extended Data Figure 3L), Fit (Wild-Type + Gs-Peptide, Isoproterenol 1.00E-08 M): 91.53 | competition binding curve vs isoproterenol (Extended Data Figure 3L) (Wild-Type + Gs-Peptide, Isoproterenol 1.00E-08 M, replicates 1-3 and Average): 91.27 and 90.42 and 91.58 and 91.80 | competition binding curve vs isoproterenol (Extended Data Figure 3L), Fit (Wild-Type + Gs-Peptide, Isoproterenol 1.00E-09 M): 98.02 | competition binding curve vs isoproterenol (Extended Data Figure 3L) (Wild-Type + Gs-Peptide, Isoproterenol 1.00E-09 M, replicates 1-3 and Average): 99.15 and 99.41 and 97.66 and 100.39 | competition binding curve vs isoproterenol (Extended Data Figure 3L), Fit (Wild-Type + Gs-Peptide, Isoproterenol 1.00E-10 M): 98.82 | competition binding curve vs isoproterenol (Extended Data Figure 3L) (Wild-Type + Gs-Peptide, Isoproterenol 1.00E-10 M, replicates 1-3 and Average): 99.26 and 100.00 (2×) and 97.78 | competition binding curve vs isoproterenol (Extended Data Figure 3L) (Wild-Type, Isoproterenol 1.00E-03 M, replicates 1-3 and Average): -0.10 and -0.40 and -0.34 and -0.28 | competition binding curve vs isoproterenol (Extended Data Figure 3L), Fit (Wild-Type, Isoproterenol 1.00E-04 M): 0.67 | competition binding curve vs isoproterenol (Extended Data Figure 3L) (Wild-Type, Isoproterenol 1.00E-04 M, replicates 1-3 and Average): 0.94 and 0.31 and 1.43 and 0.89 | competition binding curve vs isoproterenol (Extended Data Figure 3L), Fit (Wild-Type, Isoproterenol 1.00E-05 M): 5.86 | competition binding curve vs isoproterenol (Extended Data Figure 3L) (Wild-Type, Isoproterenol 1.00E-05 M, replicates 1-3 and Average): 6.24 and 5.08 and 7.57 and 6.30 | competition binding curve vs isoproterenol (Extended Data Figure 3L), Fit (Wild-Type, Isoproterenol 1.00E-06 M): 32.07 | competition binding curve vs isoproterenol (Extended Data Figure 3L) (Wild-Type, Isoproterenol 1.00E-06 M, replicates 1-3 and Average): 32.68 and 27.33 and 35.77 and 31.93 | competition binding curve vs isoproterenol (Extended Data Figure 3L), Fit (Wild-Type, Isoproterenol 1.00E-07 M): 78.70 | competition binding curve vs isoproterenol (Extended Data Figure 3L) (Wild-Type, Isoproterenol 1.00E-07 M, replicates 1-3 and Average): 79.40 and 70.32 and 85.20 and 78.31 | competition binding curve vs isoproterenol (Extended Data Figure 3L), Fit (Wild-Type, Isoproterenol 1.00E-08 M): 97.15 | competition binding curve vs isoproterenol (Extended Data Figure 3L) (Wild-Type, Isoproterenol 1.00E-08 M, replicates 1-3 and Average): 99.13 and 95.83 and 100.15 and 98.37 | competition binding curve vs isoproterenol (Extended Data Figure 3L), Fit (Wild-Type, Isoproterenol 1.00E-09 M): 99.60 | competition binding curve vs isoproterenol (Extended Data Figure 3L) (Wild-Type, Isoproterenol 1.00E-09 M, replicates 1-3 and Average): 96.70 and 99.42 and 102.28 and 99.47 | competition binding curve vs isoproterenol (Extended Data Figure 3L), Fit (Wild-Type, Isoproterenol 1.00E-10 M): 99.85 | competition binding curve vs isoproterenol (Extended Data Figure 3L) (Wild-Type, Isoproterenol 1.00E-10 M, replicates 1-3 and Average): 100.00 and 99.63 and 97.46 and 99.03 | competition binding curve vs isoproterenol (Extended Data Figure 3L), Fit (Wild-Type, Isoproterenol 5.00E-06 M): 10.54 | competition binding curve vs isoproterenol (Extended Data Figure 3L) (Wild-Type, Isoproterenol 5.00E-06 M, replicates 1-3 and Average): 11.05 and 8.39 and 11.22 and 10.22 | competition binding curve vs isoproterenol (Extended Data Figure 3L), Fit (Wild-Type, Isoproterenol 5.00E-07 M): 46.03 | competition binding curve vs isoproterenol (Extended Data Figure 3L) (Wild-Type, Isoproterenol 5.00E-07 M, replicates 1-3 and Average): 47.06 and 40.75 and 51.12 and 46.31 | % Cyanopindolol Bmax, Average (β2AR ∆ICL3 + 30 µM Gq-peptide, isoproterenol 3.00E-06 M): 34.71% | % Cyanopindolol Bmax, Average (β2AR ∆ICL3 + 30 µM Gq-peptide, isoproterenol 5.00E-06 M): 27.06% | % Cyanopindolol Bmax, Average (β2AR ∆ICL3 + 30 µM Gq-peptide, isoproterenol 5.00E-07 M): 70.37% | % Cyanopindolol Bmax, Average (β2AR ∆ICL3, isoproterenol 3.00E-06 M): 30.73% | % Cyanopindolol Bmax, Average (β2AR ∆ICL3, isoproterenol 5.00E-06 M): 15.67% | % Cyanopindolol Bmax, Average (β2AR ∆ICL3, isoproterenol 5.00E-07 M): 65.90%
